Data reported in US8685924B2, “Preventives/remedies for stress urinary incontinence and method of screening the same” (Takeda Pharmaceutical Company Limited, priority 2004, dated 2014).

Assays:
Assay type in all cases: in vivo, rat
[1] = test system: urethane-anesthetized female rats; experiment: Leak point pressure by intravesical pressure-clamp method (Example 6); details: for leak point pressure after drug administration / leak point pressure before drug administration: i.v., mean ± SEM; for leak point pressure after drug administration: 10 min later; for leak point pressure before drug administration: baseline
Method: SD female rats (body weight 180-350 g) were anesthetized with urethane (Wako Pure Chemical Industries, Ltd.), and the spinal cord was transected at T8-9 level to eliminate the reflex voiding.
Halothane (Takeda Pharmaceutical Company Limited) anesthesia was added when necessary during operation. After laparotomy, the bladder neck was tied with a suture thread and then a catheter (PE-90, Clay Adams) was inserted into the bladder and secured with a ligature. The other end of the bladder catheter was connected to a pressure transducer and saline storage reservoir (60 ml syringe) via a three-way cock.
Changes in the intravesical pressure measured by a transducer were input in a computer via an amplifier (blood pressure amplification unit AP-641G; NIHON KODEN) and an analog-to-digital cinverter (MP-100; biopack) and recorded on a hard disc. The intravesical pressure was raised for 90 sec by setting the saline storage reservoir at a given height, and the presence or absence of saline leakage from the urethral orifice was observed. The intravesical pressure was raised every 2.5 cmH2O and, after 90 sec observation period, the intravesical pressure was once returned to 0 cmH2O, after which the next step was performed. The intravesical pressure at which the saline leakage from the urethral orifice was observed was taken as the leak point pressure. The measurement of the leak point pressure was repeated and the average of the final three measures was taken as the value before the drug administration. The drug was intravenously administered, and the leak point pressure was measured again 10 min later. The drug was dissolved in DMA-PEG400 (1:1), and administered at 0.5 ml/kg.

[2] = test system: urethane-anesthetized female rats; experiment: Leak point pressure by abdominal wall electrostimulation, rats with nerve to iliococcygeus/pubococcygeus muscle transected on one side (Example 2); details: for leak point pressure after drug administration / leak point pressure increase / leak point pressure before drug administration: i.v., mean ± SEM; for leak point pressure before drug administration: baseline
Method: SD female rats (body weight 180-350 g) were anesthetized with urethane (Wako Pure Chemical Industries, Ltd.), and the spinal cord was cut at T8-9 level to eliminate the reflex voiding. In addition, the nerve to the iliococcygeus muscle/pubococcygeus muscle on the one side was transected. During operation, halothane (Takeda Pharmaceutical Company Limited) anesthesia was added when necessary. A catheter (PE-90, Clay Adams) was inserted into the bladder and secured with a ligature, and the incised part of each of the abdominal muscle and skin was closed with sutures. The abdominal skin near the diaphragm was incised at two left and right positions to newly expose the abdominal muscle. An Evans Blue dye (Merck) solution was injected into the bladder, and the bladder volume was adjusted to 0.2-0.3 ml. The bladder catheter was connected to a pressure transducer, and the signals of the transducer were sent to a computer via an amplifier (blood pressure amplification unit AP-641G; NIHON KOHDEN) and an analog-to-digital converter (BIOPAC; MP100), and recorded on a hard disc. The data were analyzed on a computer using software (BIOPAC; AcqKnowledge). The exposed abdominal muscle was electrostimulated using an electrostimulator (SEN-3301; NIHON KODEN) and an isolator (SS-202J; NIHON KODEN), and the presence or absence of incontinence from the urethral orifice was observed. The electrostimulation was applied at a voltage of 3-50 V, duration of 0.05-0.5 milisec, and frequency 50 Hz for 1 sec, thereby gradually increasing the intravesical pressure. The peak intravesical pressure during stimulation of the abdominal wall was measured and, of the trials with observed incontinence, the lowest peak intravesical pressure was defined as the leak point pressure. The leak point pressure was compared before and after the duloxetine and midodrine administration. Duloxetine was dissolved in […] (DMA)/polyethylene glycol 400 (PEG400) (1:1), and intravenously administered at 0.5 ml/kg. Midodrine (hydrochloride, Sigma) was dissolved in saline and intravenously administered at 1 ml/kg.

[3] = test system: urethane-anesthetized female rats; experiment: Leak point pressure by direct compressing of the bladder (Example 4); details: for leak point pressure after drug administration / leak point pressure increase / leak point pressure before drug administration: i.v., mean ± SEM; for leak point pressure after drug administration: 20 min later; for leak point pressure before drug administration: baseline
Method: (§1) SD female rats (body weight 180-350 g) were anesthetized with urethane (Wako Pure Chemical Industries, Ltd.), and halothane (Takeda Pharmaceutical Company Limited) anesthesia was added when necessary during operation.
(§2) The spinal cord was transected at T8-9 level to eliminate the reflex voiding. The lower abdomen was incised in the median line, a catheter for intravesical pressure measurement (PE-90, Clay Adams) was inserted into the bladder and secured with a ligature, and the intravesical pressure was measured via a pressure transducer. Urine was emptized in advance by bilaterally pressing the bladder with two swabs, and a 0.1% Evans blue (Merck) solution (0.4 mL) was injected into the bladder. The bladder was gradually compressed bilaterally with two swabs, and the intravesical pressure upon saline leakage from the urethral orifice was measured and defined as a leak point pressure. The measurement of the leak point pressure was repeated, and the average value of the final five stable measures was taken as the value before drug administration. Thereafter, the drug was intravenously administered, the leak point pressure was measured again 20 min later, and the value after the drug administration was determined. DOI, mCPP and eltoprazine were dissolved in saline, and other drugs were dissolved in DMA/PEG400 (1:1), and intravenously administered at 1 ml/kg and 0.5 mg/kg, respectively. Depending on the experiment, RS-102221 or SB221284 (showing serotonin 5-HT2C receptor antagonist activity) was administered, 5 min later, WAY-161503 or WAY-163909 was administered, leak point pressure was measured 10 min later, and a competitive assay with the action of WAY-161503 or WAY-163909 was performed. RS-102221 and SB221284 were both dissolved in DMA/PEG400 (1:1), and intravenously administered at 0.5 ml/kg.

[4] = test system: urethane-anesthetized female rats; experiment: Antagonism of the leak point pressure increase by WAY-161503 / WAY-163909, direct bladder compression method (Example 4); details: agonist 0.3 mg/kg, i.v., antagonist: solvent, mean ± SEM
Method: as §1, §2

[5] = test system: urethane-anesthetized female rats; experiment: Antagonism of the leak point pressure increase by WAY-161503 / WAY-163909, abdominal wall-electrically stimulating method (Example 3); details: agonist 0.3 mg/kg, i.v., antagonist: solvent, mean ± SEM
Method: (§3) SD female rats (body weight 180-350 g) were anesthetized with urethane (Wako Pure Chemical Industries, Ltd.), and the spinal cord was transected at T8-9 level to eliminate the reflex voiding. In addition, the nerve to the iliococcygeus muscle/pubococcygeus muscle on the one side was transected. During operation, halothane (Takeda Pharmaceutical Company Limited) anesthesia was added when necessary. A catheter (PE-90, Clay Adams) was inserted into the bladder and secured with a ligature, and the incised part of each of the abdominal muscle and skin was closed with sutures. The abdominal skin near the diaphragm was incised at two left and right positions to newly expose the abdominal muscle. An Evans Blue dye (Merck) solution was injected into the bladder, and the bladder volume was adjusted to 0.2-0.3 ml. The bladder catheter was connected to a pressure transducer, and the signals of the transducer were sent to a computer via an amplifier (blood pressure amplification unit AP-641G; NIHON KOHDEN) and an analog-to-digital converter (BIOPAC; MP100), and recorded on a hard disc. The data were analyzed on a computer using software (BIOPAC; AcqKnowledge). The exposed abdominal muscle was electrostimulated using an electrostimulator (SEN-3301; NIHON KODEN) and an isolator (SS-202J; NIHON KODEN), and the presence or absence of incontinence from the meatus urethra was observed. The electrostimulation was applied at a voltage of 2.5-50 V, duration of 0.5 milisec, and frequency 50 Hz for 1 sec, thereby gradually increasing the intravesical pressure. The peak intravesical pressure during stimulation of the abdominal wall was measured and, of the trials with observed incontinence, the lowest peak intravesical pressure was defined as the leak point pressure. Serotonin 5-HT receptor agonist, WAY-161503 (5-HT2C receptor agonist), WAY-163909 (5-HT2C receptor agonist), DOI (5-HT2A/2B/2C receptor agonist), mCPP (5-HT2B/2C receptor partial agonist), eltoprazine (5-HT1A/1B/2C receptor partial agonist), 8-OH-DPAT (5-HT1A receptor agonist), sumatryptan (5-HT1B/1D receptor agonist) and BW723C86 (5-HT2B receptor agonist) were intravenously administered, and the leak point pressure was compared before and after the administration. DOI, mCPP and eltoprazine were dissolved in saline, and other drugs were dissolved in DMA/PEG400 (1:1), and they were intravenously administered at 1 ml/kg and 0.5 mg/kg, respectively. Depending on the experiment, RS-102221 (serotonin 5-HT2C receptor antagonist) or SB221284 (serotonin 5-HT2B/2C receptor antagonist) was intravenously administered 5 min before WAY-161503 or WAY-163909 administration, and an antagonistic effect against the WAY-161503 or WAY-163909-induced increment of the leak point pressure was examined. RS-102221 and SB221284 were both dissolved in DMA/PEG400 (1:1) and intravenously administered at 0.5 ml/kg.

[6] = test system: urethane-anesthetized female rats; experiment: Leak point pressure by abdominal wall-electrically stimulating method, serotonin 5-HT receptor agonists (Example 3); details: for leak point pressure after drug administration / leak point pressure increase / leak point pressure before drug administration: i.v., mean ± SEM; for leak point pressure before drug administration: baseline
Method: as §3

C[C@]12CCC(=O)C[C@@H]1CC[C@@H]1[C@@H]2CC[C@]2(C)[C@@H](O)CC[C@@H]12 [DHT, dihydrotestosterone]
leak point pressure after drug administration ([1]; 0.3 mg/kg): 35.5 ± 3.9 cmH2O
leak point pressure after drug administration ([1]; 1 mg/kg): 41.1 ± 3.4 cmH2O
leak point pressure after drug administration ([1]; 3 mg/kg): 36.9 ± 2.1 cmH2O
leak point pressure before drug administration ([1]; dose group 0.3 mg/kg): 32.1 ± 3.9 cmH2O
leak point pressure before drug administration ([1]; dose group 1 mg/kg): 35.7 ± 3.1 cmH2O
leak point pressure before drug administration ([1]; dose group 3 mg/kg): 30.5 ± 2.2 cmH2O
effect on leak point pressure ([1]; intravesical pressure-clamp method): increased the leak point pressure

COc1ccc(OC)c(C(O)CNC(=O)CN)c1 (centres unmarked) [midodrine]
leak point pressure after drug administration ([2]; 3 mg/kg): 39.5 ± 7.5 cmH2O
leak point pressure increase ([2]; 3 mg/kg): 3.3 ± 4.0 cmH2O
leak point pressure after drug administration ([2]; 10 mg/kg): 45.1 ± 3.8 cmH2O
leak point pressure increase ([2]; 10 mg/kg): 6.1 ± 1.4 cmH2O
leak point pressure before drug administration ([2]; dose group 3 mg/kg): 36.2 ± 4.8 cmH2O
leak point pressure before drug administration ([2]; dose group 10 mg/kg): 38.9 ± 4.5 cmH2O
effect on leak point pressure, comparison before and after administration ([2]; intravenously administered): significant increase in the leak point pressure

c1cc2c3c(c1)[C@H]1CCC[C@H]1N3CCNC2 [WAY-163909]
leak point pressure after drug administration ([3]; 0.03 mg/kg): 73.3 ± 3.9 cmH2O
leak point pressure increase ([3]; 0.03 mg/kg): 6.6 ± 2.2 cmH2O
leak point pressure after drug administration ([3]; 0.1 mg/kg): 76.0 ± 2.7 cmH2O
leak point pressure increase ([3]; 0.1 mg/kg): 11.8 ± 2.0 cmH2O
leak point pressure after drug administration ([3]; 0.3 mg/kg): 69.9 ± 3.5 cmH2O
leak point pressure increase ([3]; 0.3 mg/kg): 17.0 ± 1.8 cmH2O
leak point pressure after drug administration ([3]; 1 mg/kg): 78.7 ± 5.7 cmH2O
leak point pressure increase ([3]; 1 mg/kg): 20.4 ± 4.0 cmH2O
leak point pressure after drug administration ([3]; 3 mg/kg): 78.7 ± 4.7 cmH2O
leak point pressure increase ([3]; 3 mg/kg): 26.0 ± 3.5 cmH2O
leak point pressure before drug administration ([3]; dose group 0.03 mg/kg): 66.6 ± 5.1 cmH2O
leak point pressure before drug administration ([3]; dose group 0.1 mg/kg): 64.2 ± 1.3 cmH2O
leak point pressure before drug administration ([3]; dose group 0.3 mg/kg): 52.9 ± 3.6 cmH2O
leak point pressure before drug administration ([3]; dose group 1 mg/kg): 58.4 ± 2.3 cmH2O
leak point pressure before drug administration ([3]; dose group 3 mg/kg): 52.7 ± 1.4 cmH2O
effect on leak point pressure ([3]; intravenous administration): dose-dependently increased the leak point pressure
leak point pressure after drug administration [4]: 77.6 ± 3.8 cmH2O
leak point pressure increase [4]: 15.0 ± 1.1 cmH2O
leak point pressure before drug administration ([4]; baseline): 62.6 ± 4.2 cmH2O
leak point pressure after drug administration [5]: 57.6 ± 4.5 cmH2O
leak point pressure increase [5]: 13.7 ± 2.2 cmH2O
leak point pressure before drug administration ([5]; baseline): 43.9 ± 4.3 cmH2O
leak point pressure after drug administration ([6]; 0.03 mg/kg): 43.0 ± 6.3 cmH2O
leak point pressure increase ([6]; 0.03 mg/kg): 3.5 ± 3.1 cmH2O
leak point pressure after drug administration ([6]; 0.1 mg/kg): 55.5 ± 1.8 cmH2O
leak point pressure increase ([6]; 0.1 mg/kg): 11.1 ± 3.0 cmH2O
leak point pressure after drug administration ([6]; 0.3 mg/kg): 55.9 ± 8.5 cmH2O
leak point pressure increase ([6]; 0.3 mg/kg): 14.4 ± 3.9 cmH2O
leak point pressure after drug administration ([6]; 1 mg/kg): 67.1 ± 5.2 cmH2O
leak point pressure increase ([6]; 1 mg/kg): 24.0 ± 3.1 cmH2O
leak point pressure before drug administration ([6]; dose group 0.03 mg/kg): 39.5 ± 4.3 cmH2O
leak point pressure before drug administration ([6]; dose group 0.1 mg/kg): 44.4 ± 4.5 cmH2O
leak point pressure before drug administration ([6]; dose group 0.3 mg/kg): 41.6 ± 6.0 cmH2O
leak point pressure before drug administration ([6]; dose group 1 mg/kg): 43.1 ± 3.4 cmH2O
dose at which a significant effect on the leak point pressure was afforded ([6]; intravenous administration): not less than 0.1 mg/kg
effect on leak point pressure ([6]; intravenous administration): dose-dependently increased the leak point pressure
